The values that follow come from PubChem BioAssay AID1918932 (Molecular Pharmacology Branch, DTP, NCI, 2023).

In the experiment the test system is 171881-019-R-J1-PDC complex spheroid viability. The experiment can be described thus: Anticancer human tumor 171881-019-R-J1-PDC patient-derived invasive breast carcinoma cell line growth inhibition. The settings on record: for viability, T/C: stronger effect = lower value. The method, boiled down: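 Multicellular complex spheroids of tumor cells with human endothelial cells (HUVEC) and mesenchymal stem cells; the LSD1 inhibitor iadademstat was combined with standard-of-care or investigational agents. Top concentration at or near clinical Cmax, half-log dilutions; final DMSO ≤0.25%.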

Setting [1] is: curve of first compound, second compound 0.1 µM.
Setting [2] is: curve of first compound, second compound 0.316 µM.
Setting [3] is: curve of first compound, second compound 1 µM.
Setting [4] is: curve of first compound, second compound 3.16 µM.
[5] abbreviates: curve of first compound, second compound 10 µM.
The mark [6] stands for this setting: second compound 0.1 µM, first compound 0.00316 µM.
Setting [7] is: second compound 0.1 µM, first compound 0.01 µM.
Setting [8] is: second compound 0.1 µM, first compound 0.0316 µM.
The mark [9] stands for this setting: second compound 0.1 µM, first compound 0.1 µM.
Where [10] appears, read: second compound 0.1 µM, first compound 0.316 µM.
Where [11] appears, read: second compound 0.1 µM, first compound 1 µM.
Where [12] appears, read: second compound 0.316 µM, first compound 0.00316 µM.
Where [13] appears, read: second compound 0.316 µM, first compound 0.01 µM.
Where [14] appears, read: second compound 0.316 µM, first compound 0.0316 µM.
[15] abbreviates: second compound 0.316 µM, first compound 0.1 µM.
The mark [16] stands for this setting: second compound 0.316 µM, first compound 0.316 µM.
[17] abbreviates: second compound 0.316 µM, first compound 1 µM.
The mark [18] stands for this setting: second compound 1 µM, first compound 0.00316 µM.
Where [19] appears, read: second compound 1 µM, first compound 0.01 µM.
[20] abbreviates: second compound 1 µM, first compound 0.0316 µM.
Where [21] appears, read: second compound 1 µM, first compound 0.1 µM.
Setting [22] is: second compound 1 µM, first compound 0.316 µM.
Setting [23] is: second compound 1 µM, first compound 1 µM.
Setting [24] is: second compound 3.16 µM, first compound 0.00316 µM.
[25] abbreviates: second compound 3.16 µM, first compound 0.01 µM.
Setting [26] is: second compound 3.16 µM, first compound 0.0316 µM.
[27] abbreviates: second compound 3.16 µM, first compound 0.1 µM.
Setting [28] is: second compound 3.16 µM, first compound 0.316 µM.
The mark [29] stands for this setting: second compound 3.16 µM, first compound 1 µM.
Where [30] appears, read: second compound 10 µM, first compound 0.00316 µM.
The mark [31] stands for this setting: second compound 10 µM, first compound 0.01 µM.
[32] abbreviates: second compound 10 µM, first compound 0.0316 µM.
[33] abbreviates: second compound 10 µM, first compound 0.1 µM.
[34] abbreviates: second compound 10 µM, first compound 0.316 µM.
Setting [35] is: second compound 10 µM, first compound 1 µM.

Where “and” joins values, the source holds several entries; their conditions need not be identical. Identical values can stand only once.

As a reminder, the IC50 is the concentration needed to halve the response being measured. One may read the viability, T/C as the ratio of treated to control.
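Further: spheroids exposed to agents for 7 days after 3 days growth.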

Take `CC1COCCN1c1cc(-c2ccnn2C)c2ccnc(-c3ccn[nH]3)c2n1` (centres undefined) + NC1CC1c1ccc(-c2cccc(O)c2)cc1: the IC50 was found to be 6.07 nM under setting [1]; 4.76 nM under setting [2]; 4.38 nM under setting [3]; 6.57 nM under setting [4]; 4.98 nM under setting [5]. The viability, T/C is 54.6% under setting [6]; 46.5% under setting [7]; 23.1% under setting [8]; 9.09% under setting [9]; 6.72% under setting [10]; 6.42% under setting [11]. Besides, the viability, T/C by setting is: under setting [12], 53.6%; under setting [13], 43.5%; under setting [14], 23.6%; under setting [15], 9.96%; under setting [16], 6.7%; under setting [17], 5.87%. For the same compound, the viability, T/C is, setting by setting: under setting [18], 51.1%; under setting [19], 47%; under setting [20], 25.3%; under setting [21], 9.83%; under setting [22], 6.55%; under setting [23], 5.67%. Further, the viability, T/C is, setting by setting: under setting [24], 56%; under setting [25], 46.4%; under setting [26], 23.8%; under setting [27], 8.53%; under setting [28], 5.95%; under setting [29], 5.45%. In addition, the viability, T/C under setting [30] was 54.1%; the viability, T/C under setting [31] is 44%; the viability, T/C under setting [32] was 22.4%; the viability, T/C under setting [33] is 12.8%; the viability, T/C under setting [34] was 7.13%; the viability, T/C under setting [35] was 6.24%.
Regarding `O=C(C=Cn1cnc(-c2cc(C(F)(F)F)cc(C(F)(F)F)c2)n1)NNc1cnccn1` + NC1CC1c1ccc(-c2cccc(O)c2)cc1, the IC50 under setting [1] is below 3.16 nM; the half-maximal inhibitory concentration (IC50) under setting [2] was below 3.16 nM; the 50% inhibitory concentration (IC50) under setting [3] was below 3.16 nM; the half-maximal inhibitory concentration (IC50) under setting [4] was below 3.16 nM; the IC50 under setting [5] was below 3.16 nM. In addition, the viability, T/C under setting [6] was 19.1%; the viability, T/C under setting [7] was 13%; the viability, T/C under setting [8] is 4.97%; the viability, T/C under setting [9] is 2.14%; the viability, T/C under setting [10] is 2.1%; the viability, T/C under setting [11] was 1.99%. Further, the viability, T/C by setting is: under setting [12], 21.3%; under setting [13], 14.4%; under setting [14], 5.36%; under setting [15], 2.27%; under setting [16], 2.08%; under setting [17], 1.91%. Also, the viability, T/C is, setting by setting: under setting [18], 23.4%; under setting [19], 16.1%; under setting [20], 9.98%; under setting [21], 2.64%; under setting [22], 2.11%; under setting [23], 1.82%. For the same compound, the viability, T/C is, setting by setting: under setting [24], 25.9%; under setting [25], 17.5%; under setting [26], 5.43%; under setting [27], 2.42%; under setting [28], 2.5%; under setting [29], 2.17%. Moreover, the viability, T/C under setting [30] was 25%; the viability, T/C under setting [31] was 16.5%; the viability, T/C under setting [32] was 6.08%; the viability, T/C under setting [33] was 11.4%; the viability, T/C under setting [34] was 6.91%; the viability, T/C under setting [35] was 3.16%.
On to `CC1COCCN1c1cc(-c2ccnn2C)c2ccnc(-c3ccn[nH]3)c2n1` (centres undefined), for which the viability, T/C was 55.2% and 49.8% (compound 0.00316 µM); 41.7% and 43.5% (compound 0.01 µM); 15.5% and 21.5% (compound 0.0316 µM); 7.25% and 9.16% (compound 0.1 µM); 6.43% and 6.74% (compound 0.316 µM); 5.29% and 6.58% (compound 1 µM). Further, the IC50 (curve of compound) was 4.91 nM and < 3.16 nM.
Consider `NC1CCC(NC2CC2c2ccccc2)CC1` (centres undefined), for which the viability, T/C (compound 0.316 µM) was 79.8% and 83.8% and 81.9%. Moreover, the IC50 (compound alone, run of 02/15/2022) was above 10000 nM.
Regarding `O=C(C=Cc1cccc(S(=O)(=O)Nc2ccccc2)c1)NO` + NC1CCC(NC2CC2c2ccccc2)CC1, the IC50 worked out at 441 nM under setting [1]; 387 nM under setting [2]; 371 nM under setting [3]; 370 nM under setting [4]; 363 nM under setting [5]. The viability, T/C runs as follows: (second compound 0.1 µM, first compound 0.00949 µM) 81.7%; (second compound 0.1 µM, first compound 0.03 µM) 86.9%; (second compound 0.1 µM, first compound 0.0949 µM) 112%; (second compound 0.1 µM, first compound 0.3 µM) 69.3%; (second compound 0.1 µM, first compound 0.949 µM) 10.8%; (second compound 0.1 µM, first compound 3 µM) 0.16%. The viability, T/C (second compound 0.316 µM, first compound 0.00949 µM) was 92.8%; the viability, T/C (second compound 0.316 µM, first compound 0.03 µM) is 104%; the viability, T/C (second compound 0.316 µM, first compound 0.0949 µM) is 112%; the viability, T/C (second compound 0.316 µM, first compound 0.3 µM) is 63.5%; the viability, T/C (second compound 0.316 µM, first compound 0.949 µM) was 5.13%; the viability, T/C (second compound 0.316 µM, first compound 3 µM) is 0.17%. Further, the viability, T/C was 101% (second compound 1 µM, first compound 0.00949 µM); 108% (second compound 1 µM, first compound 0.03 µM); 100% (second compound 1 µM, first compound 0.0949 µM); 59% (second compound 1 µM, first compound 0.3 µM); 10.2% (second compound 1 µM, first compound 0.949 µM); 5.62% (second compound 1 µM, first compound 3 µM). Besides, the viability, T/C is 93.4% (second compound 3.16 µM, first compound 0.00949 µM); 105% (second compound 3.16 µM, first compound 0.03 µM); 97% (second compound 3.16 µM, first compound 0.0949 µM); 58.9% (second compound 3.16 µM, first compound 0.3 µM); 9.02% (second compound 3.16 µM, first compound 0.949 µM); 0.15% (second compound 3.16 µM, first compound 3 µM). Moreover, the viability, T/C is, setting by setting: (second compound 10 µM, first compound 0.00949 µM) 84.1%; (second compound 10 µM, first compound 0.03 µM) 93%; (second compound 10 µM, first compound 0.0949 µM) 111%; (second compound 10 µM, first compound 0.3 µM) 59.1%; (second compound 10 µM, first compound 0.949 µM) 7.76%; (second compound 10 µM, first compound 3 µM) 0.33%.
